In experiment [1] the test system is pAKT (S473) in T47D.1 cells, PI3Kα H1047R mutation present. Description: HTRF pAKT-T47D cell assay. The format is cell-based. As to conditions: RPMI+10% FBS+0.2 units/mL bovine insulin. The method, then:
Compounds A and B were assayed using homogeneous time-resolved fluorescence (HTRF).
Gibco RPMI 1640 Medium, no phenol red; Gibco RPMI 1640 Medium; Gibco Trypsin-EDTA (0.5%), no phenol red; Gibco DPBS; Trypan blue solution 0.4% (Corning); Avantor Seradigm Premium Grade Fetal Bovine Serum (FBS); Greiner 784080-384 well TC treated white plates; pAKT (Ser473) HTRF; Gibco Insulin, human recombinant, zinc solution; Gibco Recovery Cell Culture Freezing Medium; Countess II FL Automated Cell Counter (ThermoFisher); Countess II Slides (ThermoFisher); Microscope; and PHERAstar FSX Microplate Reader (BMG LABTECH, Inc.).
The cell line ID was T47D.1, the HTRF detection was pAKT (S473), a PI3Kα H1047R mutation was present, the seeding density was 5000, the timepoint was 1 hour, and the medium used was RPMI+10% FBS (no phenol red)+0.2 units/mL bovine insulin.
• The cell density was not permitted to reach 100% confluence. The cells were split 1.5 when they reached ˜80% confluence. • Cells were split twice a week (Mon and Fri). • Cells over passage 18 were not used (˜2 months of maintenance). • Antibiotics were not used for tissue culture maintenance or assays.
The procedure was as follows: • 1. Prepared ARP: • a. Stamped 12.5 nL from 10 mM source plate to destination plate using Echo. Sealed plate immediately and froze at −20° C. if it was not used on the same day. • b. If a frozen ARP was used, the plate was thawed and spun at 1000 rpm×1 min. • 2. Preparation of cells (adherent): • a. Aspirated media from cells. Washed cells with sterile 1×PBS. Aspirated PBS and added appropriate amount of Trypsin. • b. Once cells were fully trypsinized, added appropriate media to resuspend cells. Transferred cells to a 15 mL or 50 mL conical tube. • c. Counted cells on the Countess II Cell Counter. • 3. Plating of cells: • a. […] Calculated the amount of HTRF antibody master mix needed to perform the desired experiments plus any extra dead volume required for dispensing (4 mL required per well). […]
• 6. Measured on the PHERAstar/Envision using the HTRF protocol. When plates were read, all wells were read.

Experiment [2] addresses T1, PI3Kα H1047R (full-length p110-α H1047R complexed with truncated p85-α, residues 322-694) + wortmannin (Homo sapiens, UniProt P42336, H1047R).
T1 construct: The protein contained a full-length p110-α subunit harboring the H1047R mutation with an N-terminal AviTag
The experiment in a line: Surface Plasmon Resonance (SPR) binding, Biacore 8K, ATP site blocked with wortmannin. As to conditions: multi-cycle kinetics, 25° C., protein pre-incubated with 1 μM wortmannin. The method, then:
SPR experiments were performed on a Biacore 8K instrument. A biotinylated recombinant PI3Kα H1047R protein was used in this study. The protein contained a full-length p110-α subunit harboring the H1047R mutation with an N-terminal AviTag, complexed with a truncated p85-α subunit (amino acid residues 322-694). The protein was first incubated with 1 μM wortmannin for 30 min at RT to covalently block the ATP binding site, then immobilized onto a streptavidin sensor chip by flowing the protein through the sensor chip at typically 20 μg/mL concentration and 2 μL/min flow rate for 1200 seconds. Compound binding affinities were measured in the multi-cycle kinetics mode, at 90 μL/min flow rate with 90 seconds association time and 240 seconds dissociation time. The running buffer contained 50 mM Tris, pH 7.5, 150 mMNaCl, 0.01% Brij35, 1 mM DTT, 1 mM MgCl2, 0.05% Tween-20 and 2% DMSO. Temperature was maintained at 25° C. during experiments. SPR can also be utilized to study competition between Compounds A and B, i.e., by measuring the binding of Compound A in the presence and absence of Compound B, and by measuring the binding of Compound B in the presence and absence of Compound A.

T1 sequence (P42336 whole entry H1047R, the tested form may be a part): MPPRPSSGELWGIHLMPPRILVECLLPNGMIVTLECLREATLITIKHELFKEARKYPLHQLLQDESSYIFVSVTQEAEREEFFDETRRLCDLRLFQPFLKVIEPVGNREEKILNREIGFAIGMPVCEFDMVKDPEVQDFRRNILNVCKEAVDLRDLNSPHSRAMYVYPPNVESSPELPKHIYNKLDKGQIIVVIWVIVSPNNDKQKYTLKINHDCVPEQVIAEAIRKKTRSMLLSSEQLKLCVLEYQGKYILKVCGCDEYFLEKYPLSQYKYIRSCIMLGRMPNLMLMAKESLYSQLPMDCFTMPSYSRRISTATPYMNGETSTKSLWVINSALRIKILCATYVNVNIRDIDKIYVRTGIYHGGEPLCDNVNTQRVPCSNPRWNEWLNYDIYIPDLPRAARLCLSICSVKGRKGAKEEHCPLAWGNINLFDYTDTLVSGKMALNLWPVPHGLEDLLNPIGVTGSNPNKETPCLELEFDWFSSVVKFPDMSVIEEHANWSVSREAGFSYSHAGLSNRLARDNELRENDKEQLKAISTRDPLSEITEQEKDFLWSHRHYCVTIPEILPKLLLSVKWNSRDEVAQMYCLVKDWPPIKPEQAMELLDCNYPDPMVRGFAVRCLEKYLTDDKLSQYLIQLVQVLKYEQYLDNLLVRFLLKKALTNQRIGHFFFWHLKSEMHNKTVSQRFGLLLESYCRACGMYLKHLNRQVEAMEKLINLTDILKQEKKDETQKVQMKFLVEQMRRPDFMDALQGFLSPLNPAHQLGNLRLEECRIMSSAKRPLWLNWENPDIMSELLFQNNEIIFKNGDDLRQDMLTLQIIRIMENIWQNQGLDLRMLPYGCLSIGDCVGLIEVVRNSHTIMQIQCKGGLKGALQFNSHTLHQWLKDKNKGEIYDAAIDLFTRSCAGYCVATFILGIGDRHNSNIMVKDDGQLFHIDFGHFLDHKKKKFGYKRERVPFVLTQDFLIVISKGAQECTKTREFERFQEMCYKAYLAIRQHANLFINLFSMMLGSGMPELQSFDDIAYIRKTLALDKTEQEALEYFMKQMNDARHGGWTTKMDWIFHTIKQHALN
T1 sequence (P27986 322-694 partner limits assumed): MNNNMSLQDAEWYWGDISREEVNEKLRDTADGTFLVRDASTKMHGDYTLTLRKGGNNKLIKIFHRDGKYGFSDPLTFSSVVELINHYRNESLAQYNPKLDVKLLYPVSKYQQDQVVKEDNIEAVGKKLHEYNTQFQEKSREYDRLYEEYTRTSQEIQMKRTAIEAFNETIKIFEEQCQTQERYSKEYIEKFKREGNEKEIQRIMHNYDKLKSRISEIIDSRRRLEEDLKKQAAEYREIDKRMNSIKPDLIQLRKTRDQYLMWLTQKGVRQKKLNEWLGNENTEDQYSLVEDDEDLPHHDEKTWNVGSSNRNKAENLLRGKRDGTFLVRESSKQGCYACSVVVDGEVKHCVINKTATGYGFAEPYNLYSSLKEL

Regarding `Cc1c([C@@H](NC(=O)Nc2cncc(C(=O)N(C)C)c2)C(C)C)oc2ccc(F)cc12` [Compound A, (S)-5-(3-(1-(5-fluoro-3-methylbenzofuran-2-yl)-2-methylpropyl)ureido)-N,N-dimethylnicotinamide], the IC50 in experiment [1] (1 hour) came to 598 nM; in experiment [1] (Homo sapiens, T47D, 1 h) it was 455 nM. Further, the dissociation constant (Kd) in experiment [2] came to 38.4 nM.

For `Cc1c([C@@H](Nc2nc3ccc(C(N)=O)cc3[nH]2)C(C)C)oc2ccc(F)cc12` [Compound B, (S)-2-((1-(5-fluoro-3-methylbenzofuran-2-yl)-2-methylpropyl)amino)-1H-benzo[d]imidazole-6-carboxamide], the IC50 in experiment [1] (Homo sapiens, T47D, 1 h) worked out at 213 nM. In addition, in experiment [2], the Kd is 8.6 nM.

The record behind these values is US20260048045A1, “PI3K-ALPHA INHIBITORS FOR THE TREATMENT OF CANCER” (Scorpion Therapeutics, Inc., priority 2022, published 2026).
